Data taken from patent publication US20240300927A1, “AMIDES AS CBL-B INHIBITORS” (Genentech, Inc., priority 2021, published 2024).

Key:
Cbl-b = Cbl-b (Homo sapiens (Human), UniProt Q13191); assay: Cbl-b LCK Ub TR-FRET assay (Cbl-b Lck HTRF); format: biochemical; conditions: for (fold-selectivity): Cbl-b and C-Cbl selectivity, Lck HTRF; for IC50: read-out: Cbl-b Lck HTRF IC50
Procedure: (§1) Compounds were 3-fold serially diluted in DMSO in a 384-well polypropylene plate (#P-05525-BC; Labcyte) to generate a source plate with 10 concentrations of each compound, top concentration=2 mM. 80 nL of DMSO or compounds were transferred to each well of a black 384-well ProxiPlate (#6008260; PerkinElmer) using a Labcyte Echo. 1× assay buffer (50 mM HEPES pH7.0, 100 mM NaCl, 0.01% BSA, 0.01% Triton-X100, 1 mM DTT), 2× enzyme solution (16 nM Biotin-Cbl-b or 12 nM Biotin-c-Cbl in 1× assay buffer), 2× kinase mixture (120 nM His-LCK, 1 mM ATP, 10 mM MgCl2 in assay buffer) and 2.33× detection mixture (4.66× solution 1: 163 nM Anti-HA-D2 antibody (#610HADAB; PerkinElmer), 27.96 nM Streptavidin-EU (#AD0062; PerkinElmer), 1.398 mM EDTA in 1× assay buffer+4.66× solution 2: 2.796 μM UBE2D2/Methylated-HA-Ubiquitin thioester adduct (BostonBiochem) in 1× assay buffer) were prepared. 4 μL of 2× enzyme solution was added to each well containing compound, briefly centrifuged to mix, and incubated for 60 min at room temperature. 4 μL of 2× kinase mixture was added, briefly centrifuged to mix, and incubated for 90 min. at room temperature. 6 μL of detection mixture was added to all wells and briefly centrifuged before incubating for 20 min at room temperature. Plates were read for TR-FRET using an Envision at excitation 340 nm, emission at 615 and 665 nm, 4 flashes per well. IC50 was generated using no LCK as the low control and DMSO as the high control.
(§2) Cbl-b Lck HTRF data in Table 3 is measured according to Example 25 herein; C-cbl Lck HTRF data is measured according to Example 25 herein.
(§3) SPR and the LCK biochemical assay are orthogonal assays: SPR is a protein binding assay while the LCK assay is an enzyme activity assay. SPR measures compound binding affinity to CBL-B/C-CBL, whereas LCK assay measures compound inhibition of CBL-B/C-CBL ubiquitin transfer activity.

c-Cbl = c-Cbl (Homo sapiens (Human), UniProt P22681); assay: C-cbl LCK Ub TR-FRET assay (C-cbl Lck HTRF); format: biochemical
Procedure: as §1, §2, §3

c-Cbl, sequence (P22681 47-435): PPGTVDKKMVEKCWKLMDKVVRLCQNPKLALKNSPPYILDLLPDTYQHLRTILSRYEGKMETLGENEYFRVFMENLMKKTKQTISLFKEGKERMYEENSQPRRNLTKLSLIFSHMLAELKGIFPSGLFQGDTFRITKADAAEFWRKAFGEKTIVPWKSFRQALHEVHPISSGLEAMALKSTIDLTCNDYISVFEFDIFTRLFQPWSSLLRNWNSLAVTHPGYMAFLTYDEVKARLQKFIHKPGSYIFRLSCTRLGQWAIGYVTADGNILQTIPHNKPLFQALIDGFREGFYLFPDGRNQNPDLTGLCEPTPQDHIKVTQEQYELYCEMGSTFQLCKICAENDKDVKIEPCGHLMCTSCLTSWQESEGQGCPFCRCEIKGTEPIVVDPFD
Cbl-b, sequence (Q13191 40-426): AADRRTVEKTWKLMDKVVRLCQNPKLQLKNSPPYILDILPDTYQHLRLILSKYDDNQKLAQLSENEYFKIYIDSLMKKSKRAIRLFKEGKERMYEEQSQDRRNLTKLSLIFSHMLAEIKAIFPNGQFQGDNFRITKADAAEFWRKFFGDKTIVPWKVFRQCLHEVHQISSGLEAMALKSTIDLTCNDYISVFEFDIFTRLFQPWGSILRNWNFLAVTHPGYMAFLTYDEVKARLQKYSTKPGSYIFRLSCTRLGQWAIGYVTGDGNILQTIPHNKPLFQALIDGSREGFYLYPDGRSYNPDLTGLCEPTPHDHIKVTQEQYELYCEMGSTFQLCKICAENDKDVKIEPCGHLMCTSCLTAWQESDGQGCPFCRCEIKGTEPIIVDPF

C[C@H](c1cc(C(=O)Nc2cccc(C3([C@@H](F)c4nncn4C)COC3)c2)nc(C2CC2)c1)N1CC(C)(F)C1 [Compound 113, 6-cyclopropyl-N-(3-(3-((R)-fluoro(4-methyl-4H-1,2,4-triazol-3-yl)methyl)oxetan-3-yl)phenyl)-4-((R)-1-(3-fluoro-3-methylazetidin-1-yl)ethyl)picolinamide]
(fold-selectivity) (Cbl-b): (1.2x)
IC50 (Cbl-b): 21 nM
IC50 (c-Cbl): 27 nM

C[C@@H](c1cc(C(=O)Nc2cccc(C3([C@H](F)c4nncn4C)COC3)c2)nc(C2CC2)c1)N1CC(C)(F)C1 [Compound 114, 6-cyclopropyl-N-(3-(3-((S)-fluoro(4-methyl-4H-1,2,4-triazol-3-yl)methyl)oxetan-3-yl)phenyl)-4-((S)-1-(3-fluoro-3-methylazetidin-1-yl)ethyl)picolinamide]
(fold-selectivity) (Cbl-b): (0.76x)
IC50 (Cbl-b): 290 nM
IC50 (c-Cbl): 220 nM

C[C@H](c1cc(C(=O)Nc2cccc(C3([C@H](F)c4nncn4C)COC3)c2)nc(C2CC2)c1)N1CC(C)(F)C1 [Compound 115, 6-cyclopropyl-N-(3-(3-((S)-fluoro(4-methyl-4H-1,2,4-triazol-3-yl)methyl)oxetan-3-yl)phenyl)-4-((R)-1-(3-fluoro-3-methylazetidin-1-yl)ethyl)picolinamide]
(fold-selectivity) (Cbl-b): (1.1x)
IC50 (Cbl-b): 50 nM
IC50 (c-Cbl): 56 nM

C[C@H](Cc1nncn1C)c1cccc(NC(=O)c2nc(C(F)(F)F)cn2C)c1 [Compound 121, (R)-1-methyl-N-(3-(1-(4-methyl-4H-1,2,4-triazol-3-yl)propan-2-yl)phenyl)-4-(trifluoromethyl)-1H-imidazole-2-carboxamide]
(fold-selectivity) (Cbl-b): (0.67x)
IC50 (Cbl-b): 4400 nM
IC50 (c-Cbl): 2900 nM

C[C@H](Cc1nncn1C)c1cccc(NC(=O)c2nc(C3CC3)c[nH]2)c1 [Compound 122, (R)-4-cyclopropyl-N-(3-(1-(4-methyl-4H-1,2,4-triazol-3-yl)propan-2-yl)phenyl)-1H-imidazole-2-carboxamide]
(fold-selectivity) (Cbl-b): (0.79x)
IC50 (Cbl-b): 2800 nM
IC50 (c-Cbl): 2200 nM

Cn1cnnc1CC1(c2cccc(NC(=O)c3nc(C(F)(F)F)c[nH]3)c2)COC1 [Compound 123, N-(3-(3-((4-methyl-4H-1,2,4-triazol-3-yl)methyl)oxetan-3-yl)phenyl)-4-(trifluoromethyl)-1H-imidazole-2-carboxamide]
(fold-selectivity) (Cbl-b): (0.77x)
IC50 (Cbl-b): 2300 nM
IC50 (c-Cbl): 1800 nM

Cn1cnnc1C(F)C1(c2cccc(NC(=O)c3nc(C(F)(F)F)c[nH]3)c2)COC1 (stereo not drawn) [Compound 124, N-(3-(3-(fluoro(4-methyl-4H-1,2,4-triazol-3-yl)methyl)oxetan-3-yl)phenyl)-4-(trifluoromethyl)-1H-imidazole-2-carboxamide]
(fold-selectivity) (Cbl-b): (1.1x)
IC50 (Cbl-b): 3700 nM
IC50 (c-Cbl): 3900 nM

CC(C)[C@H]1CN(C)CCN1Cc1cc(C(=O)Nc2cccc(C3([C@H](F)c4nncn4C)CC(F)(F)C3)c2)nc(C2CC2)c1 [Compound 223, 6-cyclopropyl-N-(3-(3,3-difluoro-1-((S)-fluoro(4-methyl-4H-1,2,4-triazol-3-yl)methyl)cyclobutyl)phenyl)-4-(((S)-2-isopropyl-4-methylpiperazin-1-yl)methyl)picolinamide]
(fold-selectivity) (Cbl-b): (1.0x)
IC50 (Cbl-b): 11 nM
IC50 (c-Cbl): 11 nM

CC(C)[C@H]1CN(C)CCN1Cc1cc(C(=O)Nc2cccc(C3([C@@H](F)c4nncn4C)CC(F)(F)C3)c2)nc(C2CC2)c1 [Compound 225, 6-cyclopropyl-N-(3-(3,3-difluoro-1-((R)-fluoro(4-methyl-4H-1,2,4-triazol-3-yl)methyl)cyclobutyl)phenyl)-4-(((S)-2-isopropyl-4-methylpiperazin-1-yl)methyl)picolinamide]
(fold-selectivity) (Cbl-b): (1.2x)
IC50 (Cbl-b): 7.1 nM
IC50 (c-Cbl): 8.4 nM

Cn1cnnc1CC1(c2cccc(NC(=O)c3cc(CN4CC(C)(O)C4)cc(C4CC4)n3)c2)CC(F)(F)C1 [Compound 495, 6-cyclopropyl-N-(3-(3,3-difluoro-1-((4-methyl-4H-1,2,4-triazol-3-yl)methyl)cyclobutyl)phenyl)-4-((3-hydroxy-3-methylazetidin-1-yl)methyl)picolinamide]
(fold-selectivity) (Cbl-b): (0.68x)
IC50 (Cbl-b): 17 nM
IC50 (c-Cbl): 12 nM

Cn1cnnc1CC1(c2cccc(NC(=O)c3cc(CN4CC(C)(CO)C4)cc(C4CC4)n3)c2)CC(F)(F)C1 [Compound 496, 6-cyclopropyl-N-(3-(3,3-difluoro-1-((4-methyl-4H-1,2,4-triazol-3-yl)methyl)cyclobutyl)phenyl)-4-((3-(hydroxymethyl)-3-methylazetidin-1-yl)methyl)picolinamide]
(fold-selectivity) (Cbl-b): (0.76x)
IC50 (Cbl-b): 13 nM
IC50 (c-Cbl): 10 nM

Cn1cnnc1[C@H](F)C1(c2cccc(NC(=O)c3cc(CN4CC(C)(CO)C4)cc(C4CC4)n3)c2)CC(F)(F)C1 [Compound 497, (R)-6-cyclopropyl-N-(3-(3,3-difluoro-1-(fluoro(4-methyl-4H-1,2,4-triazol-3-yl)methyl)cyclobutyl)phenyl)-4-((3-(hydroxymethyl)-3-methylazetidin-1-yl)methyl)picolinamide]
(fold-selectivity) (Cbl-b): (0.95x)
IC50 (Cbl-b): 34 nM
IC50 (c-Cbl): 33 nM

CC(C)[C@H]1CN(C)CCN1Cc1cc(C(=O)Nc2cccc(C3(Cc4nncn4C)COC3)c2)nc(C2CC2)c1 [Compound 498, (S)-6-cyclopropyl-4-((2-isopropyl-4-methylpiperazin-1-yl)methyl)-N-(3-(3-((4-methyl-4H-1,2,4-triazol-3-yl)methyl)oxetan-3-yl)phenyl)picolinamide]
(fold-selectivity) (Cbl-b): (0.62x)
IC50 (Cbl-b): 10 nM
IC50 (c-Cbl): 6.2 nM

CC(C)[C@H]1CN(C)CCN1Cc1cc(C(=O)Nc2cccc(C3([C@@H](F)c4nncn4C)COC3)c2)nc(C2CC2)c1 [Compound 499, 6-cyclopropyl-N-(3-(3-((R)-fluoro(4-methyl-4H-1,2,4-triazol-3-yl)methyl)oxetan-3-yl)phenyl)-4-(((S)-2-isopropyl-4-methylpiperazin-1-yl)methyl)picolinamide]
(fold-selectivity) (Cbl-b): (0.63x)
IC50 (Cbl-b): 11 nM
IC50 (c-Cbl): 7 nM

CC(C)[C@H]1CN(C)CCN1Cc1cc(C(=O)Nc2cccc(C3([C@H](F)c4nncn4C)COC3)c2)nc(C2CC2)c1 [Compound 500, 6-cyclopropyl-N-(3-(3-((S)-fluoro(4-methyl-4H-1,2,4-triazol-3-yl)methyl)oxetan-3-yl)phenyl)-4-(((S)-2-isopropyl-4-methylpiperazin-1-yl)methyl)picolinamide]
(fold-selectivity) (Cbl-b): (0.82x)
IC50 (Cbl-b): 9.9 nM
IC50 (c-Cbl): 8 nM

Cn1cnnc1[C@H](F)[C@@]1(c2cccc(NC(=O)c3cccc(C(F)(F)F)n3)c2)CCO1 [Compound 501, N-(3-((S)-2-((S)-fluoro(4-methyl-4H-1,2,4-triazol-3-yl)methyl)oxetan-2-yl)phenyl)-6-(trifluoromethyl)picolinamide]
(fold-selectivity) (Cbl-b): (1.1x)
IC50 (Cbl-b): 15000 nM
IC50 (c-Cbl): 17000 nM

Cn1cnnc1[C@@H](F)[C@@]1(c2cccc(NC(=O)c3cccc(C(F)(F)F)n3)c2)CCO1 [Compound 502, N-(3-((S)-2-((R)-fluoro(4-methyl-4H-1,2,4-triazol-3-yl)methyl)oxetan-2-yl)phenyl)-6-(trifluoromethyl)picolinamide]
(fold-selectivity) (Cbl-b): (1.0x)
IC50 (Cbl-b): 20000 nM
IC50 (c-Cbl): 20000 nM

Cn1cnnc1[C@H](F)[C@]1(c2cccc(NC(=O)c3cccc(C(F)(F)F)n3)c2)CCO1 [Compound 503, N-(3-((R)-2-((S)-fluoro(4-methyl-4H-1,2,4-triazol-3-yl)methyl)oxetan-2-yl)phenyl)-6-(trifluoromethyl)picolinamide]
(fold-selectivity) (Cbl-b): (0.85x)
IC50 (Cbl-b): 20000 nM
IC50 (c-Cbl): 17000 nM

Cn1cnnc1[C@@H](F)[C@]1(c2cccc(NC(=O)c3cccc(C(F)(F)F)n3)c2)CCO1 [Compound 504, N-(3-((R)-2-((R)-fluoro(4-methyl-4H-1,2,4-triazol-3-yl)methyl)oxetan-2-yl)phenyl)-6-(trifluoromethyl)picolinamide]
(fold-selectivity) (Cbl-b): (0.55x)
IC50 (Cbl-b): 16000 nM
IC50 (c-Cbl): 8700 nM

Cn1cnnc1CC1(c2cccc(NC(=O)c3cc(C(CC4CC4)N4CCC5(CC5)C4)cc(C(F)(F)F)n3)c2)COC1 (stereo not drawn) [Compound 505, 4-(2-cyclopropyl-1-(5-azaspiro[2.4]heptan-5-yl)ethyl)-N-(3-(3-((4-methyl-4H-1,2,4-triazol-3-yl)methyl)oxetan-3-yl)phenyl)-6-(trifluoromethyl)picolinamide]
(fold-selectivity) (Cbl-b): (1.5x)
IC50 (Cbl-b): 26 nM
IC50 (c-Cbl): 39 nM
